# Laboratory results reported in patent publication US12428406B2 (PMV Pharmaceuticals, Inc., priority 2019, dated 2025).
# Biological target: T1, p53 Y220C (Homo sapiens, UniProt P04637, Y220C)
# T1 construct: The recombinant protein was a truncation mutant containing only amino acids 94-312 of p53; made in house; host or cells: E. coli
# Test: In vitro DNA binding activity assay (HTRF / TR-FRET): stabilization of p53 Y220C and increase of its DNA binding activity
# Format: biochemical
# Conditions: recombinant His-tagged p53 Y220C DNA binding domain (aa 94-312), biotin-labeled consensus DNA, incubated at 27° C. or 29° C. for 60 min
# Method in brief: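 His-tagged p53 Y220C, E. coli-expressed, binding biotin-labeled consensus DNA measured by HTRF (anti-His-APC, streptavidin-europium). Compounds from 4.5 mM DMSO stocks, 3-fold serial dilutions; incubations at room temperature 15 min, then 20 min. SC150 = concentration raising DNA binding by 50%.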
# T1 sequence (P04637 94-312, change not shown): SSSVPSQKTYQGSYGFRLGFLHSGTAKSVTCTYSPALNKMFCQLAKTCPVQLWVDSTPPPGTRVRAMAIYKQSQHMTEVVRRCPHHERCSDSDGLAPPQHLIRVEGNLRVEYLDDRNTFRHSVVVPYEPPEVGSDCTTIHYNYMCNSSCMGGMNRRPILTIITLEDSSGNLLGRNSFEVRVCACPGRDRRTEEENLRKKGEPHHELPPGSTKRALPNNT
row,SMILES,SC150 (concentration of the compound required to increase the DNA binding activity by 50%)
1,"COc1cc(S(C)(=O)=O)ccc1NCC#Cc1cc2c(NC3CCN(CC(C)OC(=O)C(C)C)CC3)cccc2n1CC(F)(F)F (racemic) [Compound 591A, 1-{4-[(2-{3-[(4-methanesulfonyl-2-methoxyphenyl)amino]prop-1-yn-1-yl}-1-(2,2,2-trifluoroethyl)-1H-indol-4-yl)amino]piperidin-1-yl}propan-2-yl 2-methylpropanoate]",+ (+ = 0 μM ≤ SC150 < 0.05 μM)
2,"CCC(=O)OC(COC)CN1CCC(Nc2cccc3c2cc(C#CCNc2ccc(S(C)(=O)=O)cc2OC)n3CC(F)(F)F)CC1 (stereo not drawn) [Compound 602A, 1-{4-[(2-{3-[(4-methanesulfonyl-2-methoxyphenyl)amino]prop-1-yn-1-yl}-1-(2,2,2-trifluoroethyl)-1H-indol-4-yl)amino]piperidin-1-yl}-3-methoxypropan-2-yl propanoate]",+ (+ = 0 μM ≤ SC150 < 0.05 μM)
3,"CNC(=O)c1ccc(NCC#Cc2cc3c(N[C@H]4CC[C@H](NC)CC4)cccc3n2CC(F)(F)F)c(OC)c1 [Compound 23A, 3-methoxy-N-methyl-4-{[3-(4-{[(1R,4R)-4-(methylamino)cyclo-hexyl]amino}-1-(2,2,2-trifluoroethyl)-1H-indol-2-yl)prop-2-yn-1-yl]amino}benzamide]",+ (+ = 0 μM ≤ SC150 < 0.05 μM)
4,"COc1cc(S(C)(=O)=O)ccc1NCC#Cc1cc2c(N[C@@H]3CCN(C(C)(C)C)C[C@@H]3F)cccc2n1CC(F)(F)F [Compound 1068A, N-((3S,4R)-1-(tert-butyl)-3-fluoropiperidin-4-yl)-2-(3-((2-methoxy-4-(methylsulfonyl)phenyl)amino)prop-1-yn-1-yl)-1-(2,2,2-trifluoroethyl)-1H-indol-4-amine]",+ (+ = 0 μM ≤ SC150 < 0.05 μM)
5,"CS(=O)(=O)c1ccc(NCC#Cc2cc3c(NC4CCOCC4)cccc3n2CC(F)(F)F)c(O)c1 [Compound 1009A, 5-methanesulfonyl-2-[(3-{4-[(oxan-4-yl)amino]-1-(2,2,2-trifluoroethyl)-1H-indol-2-yl}prop-2-yn-1-yl)amino]phenol]",+ (+ = 0 μM ≤ SC150 < 0.05 μM)
6,"COc1cc(S(C)(=O)=O)ccc1NCC#Cc1cc2c(N[C@@H]3CN(C)CC[C@@H]3F)cccc2n1CC(F)(F)F (racemic) [Compound 1067A, rac-N-[(3R,4S)-4-fluoro-1-methylpiperidin-3-yl]-2-{3-[(4-methanesulfonyl-2-methoxyphenyl)amino]prop-1-yn-1-yl}-1-(2,2,2-trifluoroethyl)-1H-indol-4-amine]",+ (+ = 0 μM ≤ SC150 < 0.05 μM)
7,"CNC(=O)c1ccc(NCC#Cc2cc3c(N[C@H]4CC[C@@H](N(C)C)CC4)cccc3n2CC(F)(F)F)c(O)c1 [Compound 97A, 3-hydroxy-N-methyl-4-{[3-(4-{[(1S,4S)-4-(dimethylamino)cyclo-hexyl]amino}-1-(2,2,2-trifluoroethyl)-1H-indol-2-yl)prop-2-yn-1-yl]amino}benzamide]",+ (+ = 0 μM ≤ SC150 < 0.05 μM)
8,"CNS(=O)(=O)c1ccc(NCC#Cc2cc3c(N[C@H]4CC[C@H](N5CCC6(CC5)COC6)CC4)cccc3n2CC(F)(F)F)c(OC)c1 [Compound 395A, 3-methoxy-N-methyl-4-{[3-(4-{[(1R,4R)-4-{2-oxa-7-azaspiro[3.5]nonan-7-yl}cyclohexyl]amino}-1-(2,2,2-trifluoroethyl)-1H-indol-2-yl)prop-2-yn-1-yl]amino}benzene-1-sulfonamide]",+ (+ = 0 μM ≤ SC150 < 0.05 μM)
9,"COc1cc(S(=O)(=O)Nc2cc(C)on2)ccc1NCC#Cc1cc2c(NC3CCOCC3)cccc2n1CC(F)(F)F [Compound 994A, 3-methoxy-N-(5-methyl-1,2-oxazol-3-yl)-4-[(3-{4-[(oxan-4-yl)amino]-1-(2,2,2-trifluoroethyl)-1H-indol-2-yl}prop-2-yn-1-yl)amino]benzene-1-sulfonamide]",+ (+ = 0 μM ≤ SC150 < 0.05 μM)
